Experimental data: publication PMC10683482, “Offsetting Low-Affinity Carbohydrate Binding with Covalency to Engage Sugar-Specific Proteins for Tumor-Immune Proximity Induction” (ACS Central Science, 2023)
Like-named read-outs stand apart in the source and are kept apart here.

Tested on: serum polyclonal antirhamnose antibodies (human IgG)
Assay: BLI affinity of rhamnose probes for polyclonal human IgG
Type: binding
Settings: for kon: anti-rhamnose assumed 3% of total IgG; for koff: dissociation in 100 mM L-rhamnose
Text: We began by synthesizing antirhamnose affinity probes consisting of α-O/α-S and β-S rhamnose glycosides functionalized with a propargyl group for CuAAC-mediated coupling to a biotin TBD (compounds 1–3, Figure 1A and Scheme S1). This enabled rhamnose immobilization onto streptavidin surfaces and subsequent antibody binding studies. We used biolayer interferometry (BLI) to estimate and compare the apparent affinity of serum polyclonal antirhamnose antibodies for each rhamnose affinity probe (Figure 1B). […] Next, biosensors were submerged in a buffer containing free rhamnose competitor, and dissociation kinetics were measured (Figure 1B, Dissociation). The dissociation buffer contained 100 mM rhamnose competitor to inhibit avidity-based antibody rebinding, which interferes with koff measurements. […] In the context of proximity-inducing molecule development, this low monovalent sugar-binding affinity will ultimately limit ternary complex formation. […] The confirmation of low affinity binding also supports why multivalency has been historically required to efficiently engage antirhamnose antibodies for tumor-immune proximity induction and engage sugar binding receptors in general.
Figure 1 Affinity determination of endogenous and monoclonal antibody sources for L-rhamnose glycoside variants. A. Chemical structures of rhamnose affinity probes. B/C. Approximation of antirhamnose antibody binding affinity for probes 1–3 using biolayer interferometry. B. Purified human serum IgG is used to estimate the affinity of endogenous polyclonal serum antirhamnose antibodies for each affinity probe 1–3. C. Monoclonal anti-23F antibody is used to estimate the potential affinity of vaccine-induced antirhamnose antibodies for each affinity probe 1–3. […] Association was monitored for 900 (B) or 600 (C) seconds. The loaded biosensor probe was then dipped into a dissociation solution of 100 mM L-rhamnose for 600 s. Association curves were fit to a two-phase association model in GraphPad Prism using Kfast to calculate kon. Dissociation curves were similarly fit to a two-phase decay using Kfast to calculate koff. TEXT PRINTED IN THE PICTURE: (B) no label printed: Polyclonal Human IgG: Kd ≈ 7 x10^-5 M | (C) no label printed: Monoclonal Anti-23F: Kd ≈ 6 x10^-6 M DOUBTS OF THE COPYIST ABOUT THIS PICTURE: Panel B, Kd ≈ 7 x10^-5 M: printed once in the plot with no link to a single curve, so it is unclear which of (1) α–O, (2) α–S and (3) β–S it applies to / Panel C, Kd ≈ 6 x10^-6 M: printed once in the plot with no link to a single curve, so it is unclear which of (1) α–O, (2) α–S and (3) β–S it applies to […]
General Notes and Materials […]
Biolayer Interferometry (BLI) General notes and Materials
IgG from human serum was purchased from Innovative Research (IHUI GGAP1000MG). Anti -23F antibody was purchased fr om Creative Biolabs (PABX -173). Biolayer Interferometry (BLI) was conducted using a ForteBio Octet Red96, and streptavidin biosensors (Sartorius - 18-5019) or ProG biosensors (Sartorius – 18-5082). For quench, a 5% skim milk (Nestle Carnation Instant Skim Milk) solution in 1X kinetics buffer was used. The instrument was set at 25 °C, with 1000 RPM, and acquisition rate of 5 Hz.
Each well of a black well plate (Greiner Bio -One - 655086) was filled with 200 µL of appropriate solution.
Dissociation buffer was comprised of L-rhamnose (100 mM, Sigma Aldrich – R3875-10G) in 1X kinetics buffer to reduce avidity contribution to dissociation rate (koff).
SDS-PAGE General notes and Materials […]
Carboxyfluorescein was purchased from Sigma Aldrich (21877 -5G-F). IgG from human serum was purchased from Innovative Research (IHUIGGAP1000MG). Anti -23F antibody was purchased from Creative Biolabs (PABX -173). Laemellie Buffer (2x) was purchased from Sigma Aldrich (S3401 -10VL).
Pre-cast Tris-Glycine Gels (4-20%) were purchased from Fisher Scientific (XP04202BOX). Standard protein ladder was purchased from Bio Rad (1610363). […]

[1] = average of three IgG concentrations, read-out: Avg Kd

SMILES: C[C@@H]1O[C@@H](OCc2cn(CCOCCNC(=O)OCCOCCOCCOCCOCCOCCOCCOCCNC(=O)CCCC[C@@H]3SC[C@@H]4NC(=O)N[C@@H]43)nn2)[C@H](O)[C@H](O)[C@H]1O [compound 1]
- kon (26.2 µM IgG): 20749 M⁻¹ s⁻¹
- koff (26.2 µM IgG): 1.199 s⁻¹
- Kd (26.2 µM IgG, read-out: Kd): 58 µM
- kon (52.5 µM IgG): 13810 M⁻¹ s⁻¹
- koff (52.5 µM IgG): 1.112 s⁻¹
- Kd (52.5 µM IgG, read-out: Kd): 81 µM
- kon (105 µM IgG): 8235 M⁻¹ s⁻¹
- koff (105 µM IgG): 1.058 s⁻¹
- Kd (105 µM IgG, read-out: Kd): 128 µM
- Kd [1]: 89 ± 36 µM

SMILES: C[C@@H]1O[C@@H](SCc2cn(CCOCCNC(=O)OCCOCCOCCOCCOCCOCCOCCOCCNC(=O)CCCC[C@@H]3SC[C@@H]4NC(=O)N[C@@H]43)nn2)[C@H](O)[C@H](O)[C@H]1O [compound 2]
- kon (26.2 µM IgG): 21981 M⁻¹ s⁻¹
- koff (26.2 µM IgG): 1.103 s⁻¹
- Kd (26.2 µM IgG, read-out: Kd): 50 µM
- kon (52.5 µM IgG): 14298 M⁻¹ s⁻¹
- koff (52.5 µM IgG): 0.97 s⁻¹
- Kd (52.5 µM IgG, read-out: Kd): 68 µM
- kon (105 µM IgG): 8194 M⁻¹ s⁻¹
- koff (105 µM IgG): 0.8262 s⁻¹
- Kd (105 µM IgG, read-out: Kd): 101 µM
- Kd [1]: 73 ± 26 µM
